Results published in US20230000869A1, “NOVEL ALK2 INHIBITORS AND METHODS FOR INHIBITING BMP SIGNALING” (The Brigham and Women's Hospital, Inc., priority 2017, published 2023).

Key:
Type in all cases: biochemical
ALK1 = biological target: T1, ALK1 (Homo sapiens, UniProt P37023); experiment: TR-FRET enzymatic assay, ALK1 kinase, 1536-well; details: for IC50 / ALK1 Span: TR-FRET; for IC50: 10 nM ALK, Ulight topo II substrate 50 nM, ATP 10 uM (Table 1); for ALK1 Span: span of the concentration-response curve
T1 construct: purchased Life technology (Fredrick, Md.) and/or CARNA BIOSCIENCES Inc. (Kobe, Japan)
Source text: (§1) We have developed six ALK kinase enzyme assays for determination of compound activities on ALK1, ALK2, ALK3, ALK4, ALK5 and ALK6. For the assay development, we had tested a number of substrates and assay conditions that led to the final optimized assay protocols with good assay windows with signal to basal (S/B) ratios above 20 fold for all six ALK assays (FIG. 1). In our knowledge, these ALK kinase assays have not been reported elsewhere.
(§2) ALK1 and ALK2-ALK6 were obtained from Life technology (Fredrick, Md.) and CARNA BIOSCIENCES Inc. (Kobe, Japan). Ulight-DNA Topoisomerase 2 alpha (Thr-1342) peptide and Europium anti-phospho-DNA Topoisomerase 2 alpha (Thr-1342) antibody was from Perkin Elmer Inc. The kinase buffer was composed of 50 mM HEPES pH7.0, 10 mM MgCl2, 3 mM MnCl2, 0.005% Tween-20 and 2 mM DTT. The compound plates and the white solid MB assay plates were purchased from Greiner Bio-one (Monroe, N.C.).
(§3) The binding of Eu-anti-phospho-peptide antibody to the phosphorylated Ulight peptide substrate bring both Eu donor and Ulight acceptor dye into close proximity. Upon excitation at 320-340 nm, the emission energy from Eu donor is transferred to Ulight acceptor dye that will generate light at 665 nm. The intensity light emission is proportional to the level of the peptide phosphorylation by ALKs. The assay was optimized and performed in 1536 plate (Table 1). Briefly, the ALKs enzymatic assay was initiated by dispense 2.5 ul enzyme with a final concentration at 10 nM prepared in 1× kinase reaction buffer. The assay plate was then added with compounds with the Pintool station (23 nl/well compound dilutions in DMSO solution) that was followed by incubation at room temperature for 10 minutes. Then 2.5 ul/well substrate was added in which 50 nM peptide substrate mixed with 10 uM, 100 uM or 1 mM ATP (final concentration). The assay plate was incubated at room temperature for 60 minutes and the kinase reaction was stopped by addition of 5 ul/well of 4 nM Eu-anti-phospho-peptide antibody with 12 mM EDTA prepared in 1× detection buffer. The assay plate was measured in an EnVision plate reader (Perkin Elmer) in the TR-FRET detection mode (excitation at 340 nm and emission at 665 nm).

ALK3 = biological target: T2, ALK3 (Homo sapiens, UniProt P36894); experiment: TR-FRET enzymatic assay, ALK3 kinase, 1536-well; details: for IC50: 10 nM ALK, Ulight topo II substrate 50 nM, ATP 10 uM (Table 1); for ALK3 Span: span of the concentration-response curve
T2 construct: purchased Life technology (Fredrick, Md.) and/or CARNA BIOSCIENCES Inc. (Kobe, Japan)
Source text: as §1, §2, §3

ALK5 = biological target: T3, ALK5 (Homo sapiens, UniProt P36897); experiment: TR-FRET enzymatic assay, ALK5 kinase, 1536-well; details: for IC50: 10 nM ALK, Ulight topo II substrate 50 nM, ATP 10 uM (Table 1); for ALK5 Span: span of the concentration-response curve
T3 construct: purchased Life technology (Fredrick, Md.) and/or CARNA BIOSCIENCES Inc. (Kobe, Japan)
T3 sequence (P36897 34-503): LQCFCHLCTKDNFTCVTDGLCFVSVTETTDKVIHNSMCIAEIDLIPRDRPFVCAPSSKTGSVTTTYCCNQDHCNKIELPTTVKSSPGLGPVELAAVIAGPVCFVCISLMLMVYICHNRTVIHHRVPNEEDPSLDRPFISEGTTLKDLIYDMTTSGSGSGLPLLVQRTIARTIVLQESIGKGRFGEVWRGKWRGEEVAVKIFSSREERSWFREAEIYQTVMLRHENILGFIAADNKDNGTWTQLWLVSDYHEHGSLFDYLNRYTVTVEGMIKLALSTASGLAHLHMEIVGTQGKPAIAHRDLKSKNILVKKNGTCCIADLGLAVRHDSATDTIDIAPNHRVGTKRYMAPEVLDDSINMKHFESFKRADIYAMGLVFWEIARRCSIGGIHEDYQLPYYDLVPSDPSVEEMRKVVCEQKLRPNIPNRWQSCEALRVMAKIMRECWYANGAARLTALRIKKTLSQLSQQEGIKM
Source text: as §1, §2, §3

T1 sequence (P37023 22-503): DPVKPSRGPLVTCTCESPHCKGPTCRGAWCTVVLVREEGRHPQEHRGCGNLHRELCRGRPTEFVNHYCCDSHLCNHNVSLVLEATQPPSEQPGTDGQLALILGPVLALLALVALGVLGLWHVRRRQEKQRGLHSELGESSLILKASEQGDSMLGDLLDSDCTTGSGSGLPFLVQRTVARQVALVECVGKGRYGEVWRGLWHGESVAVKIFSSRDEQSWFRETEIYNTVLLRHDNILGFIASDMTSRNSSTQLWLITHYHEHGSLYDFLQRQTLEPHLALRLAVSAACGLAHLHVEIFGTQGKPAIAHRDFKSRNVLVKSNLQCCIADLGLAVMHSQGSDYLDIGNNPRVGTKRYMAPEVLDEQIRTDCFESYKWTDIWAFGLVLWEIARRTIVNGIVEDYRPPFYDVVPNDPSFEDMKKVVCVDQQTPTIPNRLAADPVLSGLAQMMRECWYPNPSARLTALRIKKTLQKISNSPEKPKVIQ
T2 sequence (P36894 24-532): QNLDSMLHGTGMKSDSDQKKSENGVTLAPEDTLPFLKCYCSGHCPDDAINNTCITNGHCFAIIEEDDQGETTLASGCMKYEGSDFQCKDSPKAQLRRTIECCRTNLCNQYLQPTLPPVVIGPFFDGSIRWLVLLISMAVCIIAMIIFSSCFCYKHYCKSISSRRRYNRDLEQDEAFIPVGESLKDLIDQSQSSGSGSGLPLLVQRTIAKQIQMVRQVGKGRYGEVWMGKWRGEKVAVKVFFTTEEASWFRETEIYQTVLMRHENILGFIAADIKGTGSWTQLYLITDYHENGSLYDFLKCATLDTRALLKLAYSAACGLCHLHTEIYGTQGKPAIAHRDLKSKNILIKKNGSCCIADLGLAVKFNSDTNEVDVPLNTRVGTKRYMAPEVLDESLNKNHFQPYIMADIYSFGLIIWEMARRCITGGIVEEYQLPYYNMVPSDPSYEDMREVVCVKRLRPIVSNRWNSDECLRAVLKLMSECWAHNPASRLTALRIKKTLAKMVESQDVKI

SMILES | IC50 (ALK1) [nM] | ALK1 Span (ALK1) | IC50 (ALK3) [nM] | ALK3 Span (ALK3) | IC50 (ALK5) [nM] | ALK5 Span (ALK5) | activity in ALK1 in the presence of 10, 100, or 1,000 uM ATP (ALK1; FIG. 3, ATP 10 uM versus 100 uM or 1 mM)
Cc1cc(-c2cnn3cc(N4CCC(N5CCN(C)CC5)CC4)cnc23)c2ccccc2n1 [Compound 8] | 325 | 89.1 | 1240 | 97.0 | 2470 | 100.3 | 
c1ccc2c(-c3cnn4cc(-c5ccc(N6CCNCC6)cc5)cnc34)ccnc2c1 [TRND00262637-13] |  |  |  |  |  |  | activity reduced in the higher ATP concentrations
Cc1cc(-c2cnn3cc(N4CCC(N5CCNCC5)CC4)cnc23)c2ccccc2n1 [Compound 34] | 671 | 93.42 | 1870 | 104.4 | 4680 | 105.678 | 

Further compounds by falling IC50 (ALK1), results first:

IC50 (ALK1) [nM] | ALK1 Span (ALK1) | IC50 (ALK3) [nM] | ALK3 Span (ALK3) | IC50 (ALK5) [nM] | ALK5 Span (ALK5) | SMILES | activity in ALK1 in the presence of 10, 100, or 1,000 uM ATP (ALK1; FIG. 3, ATP 10 uM versus 100 uM or 1 mM)
1520 | 92.3 | 2820 | 96.93 | 8920 | 96 | COc1cc2c(-c3cnn4cc(N5CCC(N6CCN(C)CC6)CC5)cnc34)ccnc2cc1F [Compound 15, 7-fluoro-6-methoxy-4-(6-(4-(4-methylpiperazin-1-yl)piperidin-1-yl)pyrazolo[1,5-a]pyrimidin-3-yl)quinoline] | 
269 | 91.4 | 1280 | ~115.7 | 2080 | 102.1 | Cc1cc(-c2cnn3cc(N4CCC(N5CCOCC5)CC4)cnc23)c2ccccc2n1 [Compound 11] | 
